Marks after values point to notes of the source that are not given here.
How the values were obtained:
[1] = test system: B. cenocepacia K56-2; assay type: cell-based, Burkholderia cenocepacia; conditions: B. cenocepacia K56-2; CAMHB, 18 h, 37 °C
[2] = test system: B. lata BCC6; assay type: cell-based, Burkholderia lata; conditions: B. lata BCC6
[3] = test system: B. contaminans MF16; assay type: cell-based, Burkholderia contaminans; conditions: B. contaminans MF16
[4] = test system: B. contaminans FFH-2050MA; assay type: cell-based, Burkholderia contaminans; conditions: B. contaminans FFH-2050MA
[5] = test system: B. dolosa CEP021; assay type: cell-based, Burkholderia dolosa; conditions: B. dolosa CEP021
[6] = test system: B. multivorans ATCC17616; assay type: cell-based, Burkholderia multivorans; conditions: B. multivorans ATCC17616
[7] = test system: B. cenocepacia 140485; assay type: cell-based, Burkholderia cenocepacia; conditions: B. cenocepacia 140485
[8] = test system: B. ubonensis LMG 20358; assay type: cell-based, Burkholderia ubonensis; conditions: B. ubonensis LMG 20358
[9] = test system: B. contaminans FFH-4004; assay type: cell-based, Burkholderia contaminans; conditions: B. contaminans FFH-4004
[10] = test system: B. mallei China 5 (NBL 4); assay type: cell-based, Burkholderia mallei
[11] = test system: B. mallei Ivan (NCTC 10230); assay type: cell-based, Burkholderia mallei
[12] = test system: B. mallei China 7 (NBL 7); assay type: cell-based, Burkholderia mallei
[13] = test system: B. pseudomallei 1710b; assay type: cell-based, Burkholderia pseudomallei
[14] = test system: B. pseudomallei MSHR465a; assay type: cell-based, Burkholderia pseudomallei
[15] = test system: B. pseudomallei HBPUB10134a; assay type: cell-based, Burkholderia pseudomallei
[16] = test system: B. pseudomallei MSHR305; assay type: cell-based, Burkholderia pseudomallei
[17] = test system: Stenotrophomonas maltophilia DH57; assay type: cell-based
[18] = test system: Stenotrophomonas maltophilia K279a; assay type: cell-based
[19] = test system: Escherichia coli 120955; assay type: cell-based
[20] = test system: Escherichia vulneris CEP511; assay type: cell-based
[21] = test system: Klebsiella pneumoniae 120310; assay type: cell-based
[22] = test system: Acinetobacter baumannii ATCC 17978; assay type: cell-based
[23] = test system: Staphylococcus aureus ATCC 27700; assay type: cell-based
[24] = test system: Staphylococcus aureus 107094; assay type: cell-based
[25] = test system: Achromobacter xylosoxidans ACH03; assay type: cell-based
[26] = test system: Burkholderia cenocepacia K56-2; assay: MBC (minimum bactericidal concentration); assay type: cell-based; conditions: MBC determined from exponential time kill curve
[27] = test system: Stenotrophomonas maltophilia K279a; assay: MBC (minimum bactericidal concentration); assay type: cell-based
[28] = test system: B. cenocepacia K56-2 persister cells; assay: Time kill of persister cells generated with ciprofloxacin; assay type: cell-based, Burkholderia cenocepacia
[29] = test system: B. cenocepacia K56-2; assay: In vivo antibiotic activity in infected C. elegans; conditions: C. elegans infected with B. cenocepacia K56-2, data not shown
[30] = test system: B. cenocepacia K56-2; assay: In vivo antibiotic activity in infected G. mellonella; conditions: G. mellonella infected with B. cenocepacia K56-2, data not shown
[31] = test system: B. cenocepacia K56-2; assay: MIC in 50% human serum; assay type: cell-based, Burkholderia cenocepacia
[32] = test system: human A549 cells; conditions: cited from earlier work
[33] = test system: Galleria mellonella larvae; assay: Galleria toxicity
[34] = test system: B. cenocepacia K56-2; assay: Persister frequency assay; conditions: 24 h
[35] = test system: Stenotrophomonas maltophilia DH57; assay: MBC (minimum bactericidal concentration)
[36] = test system: Escherichia coli 120955; assay: MBC (minimum bactericidal concentration)
[37] = test system: Escherichia vulneris CEP511; assay: MBC (minimum bactericidal concentration)
[38] = test system: Klebsiella pneumoniae 120310; assay: MBC (minimum bactericidal concentration)
[39] = test system: Acinetobacter baumannii ATCC 17978; assay: MBC (minimum bactericidal concentration)
[40] = test system: Staphylococcus aureus ATCC 27700; assay: MBC (minimum bactericidal concentration)
[41] = test system: Staphylococcus aureus 107094; assay: MBC (minimum bactericidal concentration)
[42] = test system: Achromobacter xylosoxidans ACH03; assay: MBC (minimum bactericidal concentration)
[43] = test system: Burkholderia cenocepacia K56-2; assay: Time kill assays (exponential and stationary phase); conditions: time kill, 1×, 2×, 6 h

## C[PH](C)(C)[Au][S]CCO [MS-40, 2-mercaptoethanolatotrimethylphosphine gold(I)]
[1]
  MIC: 4 µg/mL
[2]
  MIC: 8 µg/mL
[3]
  MIC: 8 µg/mL
[4]
  MIC: 4 µg/mL
[5]
  MIC: 16 µg/mL
[6]
  MIC: 8 µg/mL
[7]
  MIC: 8 µg/mL
[8]
  MIC: 16 µg/mL
[9]
  MIC: 8 µg/mL
[10]
  MIC: 0.12 µg/mL
[11]
  MIC: 0.12 µg/mL
[12]
  MIC: 0.25 µg/mL
[13]
  MIC: 4 µg/mL
[14]
  MIC: 4 µg/mL
[15]
  MIC: 4 µg/mL
[16]
  MIC: 2 µg/mL
[17]
  MIC: 1 µg/mL
[18]
  MIC: 2 µg/mL
[19]
  MIC: 4 µg/mL
[20]
  MIC: 2 µg/mL
[21]
  MIC: 2 µg/mL
[22]
  MIC: 2 µg/mL
[23]
  MIC: 0.25 µg/mL
[24]
  MIC: 0.25 µg/mL
[25]
  MIC: 8 µg/mL
[26]
  MBC: 8 * μg/mL
[27]
  MBC: 2 µg/mL
[28]; enriched persister population
  further reduction of ciprofloxacin-generated persister population: 1–2 log10 CFU/mL
[28]; in PBS, 3 h, MS-40S/MS-40 2× and 4× MIC, ciprofloxacin 5× MIC
  killing of ciprofloxacin-generated persister cells: killed to a concentration below/close to the limit of detection
[29]
  in vivo antibiotic activity: did not observe in vivo antibiotic activity
[30]
  in vivo antibiotic activity: did not observe in vivo antibiotic activity
[31]
  MIC in the presence of 50% human serum: 128 µg/mL
[32]
  toxicity in human A549 cells compared with auranofin: lower toxicity
[33]; 1.0 mg/kg, 24 h
  Galleria Survival: 100%
[33]; 1.0 mg/kg, 48 h
  Galleria Survival: 96.7%
[33]; 1.0 mg/kg, 72 h
  Galleria Survival: 96.7%
[33]; 2.0 mg/kg, 24 h
  Galleria Survival: 90.0%
[33]; 2.0 mg/kg, 48 h
  Galleria Survival: 80.0%
[33]; 2.0 mg/kg, 72 h
  Galleria Survival: 80.0%
[33]; 5.0 mg/kg, 24 h
  Galleria Survival: 96.7%
[33]; 5.0 mg/kg, 48 h
  Galleria Survival: 93.3%
[33]; 5.0 mg/kg, 72 h
  Galleria Survival: 90.0%
[33]; 10 mg/kg
  percent survival of Galleria larvae: ≥ 80%
[33]; 10.0 mg/kg, 24 h
  Galleria Survival: 90.0%
[33]; 10.0 mg/kg, 48 h
  Galleria Survival: 83.3%
[33]; 10.0 mg/kg, 72 h
  Galleria Survival: 80.0%
[34]; 5× MIC
  persister frequency (percent survival): No persisters
[34]; 10× MIC
  persister frequency (percent survival): No persisters
[35]
  MBC: 4 µg/mL
[36]
  MBC: 32 µg/mL
[37]
  MBC: 2 µg/mL
[38]
  MBC: 4 µg/mL
[39]
  MBC: 4 µg/mL
[40]
  MBC: 2 µg/mL
[41]
  MBC: 1 µg/mL
[42]
  MBC: 8 µg/mL
[43]; 4× MIC (DOX 4× MIC)
  killing of stationary (non-replicating) phase cells: bactericidal
[43]; 4× MIC
  killing of exponential (replicating) phase cells: bactericidal

From article PMC8697972, “New Auranofin Analogs with Antibacterial Properties against Burkholderia Clinical Isolates” (Antibiotics, 2021)
